Read-outs that look alike come from different tables or passages of the source.
Tested on: 407 cancer cell lines
Experiment: Cell viability of cancer cell lines (IC50), CellTiter-Glo Viability Assay, 96 h
Assay type: cell-based
Conditions: for IC50: read-out: Absolute IC50
Protocol: Viability was determined by using the 50% inhibitory concentration (IC50) as determined with the CellTiter-Glo® Viability Assay (Promega).
Experiments were initiated by first thawing and equilibrating the CellTiter-Glo® Buffer to room temperature. The lyophilized CellTiter-Glo® Substrate was also equilibrated to room temperature. The lyophilized substrate was reconstituted with the CellTiter-Glo® buffer to form the CellTiter-Glo® Reagent.
Cells were harvested during the logarithmic growth period, counted, and the cell concentration adjusted to 4.44×10^4 cells/mL using culture medium.
Cells were allowed to grow overnight and the following day, the TO reading was obtained by adding 10 μL culture medium to each well of Plate A. The plate was allowed to equilibrate at room temperature for thirty minutes, after which 50 μL CellTiter-Glo® reagent was added to each well. The contents were mixed for 5 min on an orbital shaker to induce cell lysis. Plates were incubated for 20 minutes to stabilize the luminescent signal and the TO luminescence recorded.
Test plate B was incubated for 96 h in the humidified incubator at 37° C. with 5% CO2.
Following the incubation, the plate was equilibrated at room temperature for thirty minutes. CellTiter-Glo® (50 μL) was added to each well of the plate and contents mixed for five minutes on an orbital shaker to induce cell lysis. The luminescent signal was allowed to stabilize at room temperature for 20 minutes and the luminescence recorded.
IC50 (EC50) was calculated using a dose-response curve, fitted using a nonlinear regression model with a sigmoidal dose response. Survival rate was calculated using the formula:
The Surviving rate (%)=(LumTest article−LumMedium control)/(LumNon-treated−LumMedium control)×100%.
Absolute IC50 (EC50) was calculated according to the dose-response curve generated by the statistical software (GraphPad Prism 5.0).

Cc1nn(-c2nc(-c3ccc(C(F)(F)F)cc3)c(SC(C)C)s2)c(C(=O)O)c1-c1cccc(F)c1 [Compound A197, 4-(3-fluorophenyl)-1-(5-(isopropylthio)-4-(4-(trifluoromethyl)phenyl)thiazol-2-yl)-3-methyl-1H-pyrazole-5-carboxylic acid]
% inhibition at top conc. (22Rv1 cells, 96 h): 68.15% | % inhibition at top conc. (5637 cells, 96 h): 68.06% | IC50 (96 h, 5637 cells, 96 h): 490 nM | IC50 (96 h, A3/KAW cells, 96 h): 290 nM | IC50 (96 h, ASH-3 cells, 96 h): > 30000 nM | IC50 (96 h, C4-2, 96 h): > 30000 nM | IC50 (96 h, CCK-81 cells, 96 h): 320 nM | IC50 (96 h, COV644 cells, 96 h): > 30000 nM | IC50 (96 h, H4 cells, 96 h): 730 nM | IC50 (96 h, HCC 94 cells, 96 h): 820 nM | IC50 (96 h, HM-7, 96 h): > 30000 nM | IC50 (96 h, IHH-4 cells, 96 h): 900 nM | IC50 (96 h, IM95m cells, 96 h): 780 nM | IC50 (96 h, JHH-5 cells, 96 h): > 30000 nM | IC50 (96 h, M059K cells, 96 h): 1660 nM | IC50 (96 h, MC/CAR cells, 96 h): 3280 nM | IC50 (96 h, NAMALWA cells, 96 h): 510 nM | IC50 (96 h, OCUM-2D cells, 96 h): 1150 nM | IC50 (96 h, OCUM-2M cells, 96 h): 830 nM | IC50 (96 h, RBE cells, 96 h): 840 nM | IC50 (96 h, SCH cells, 96 h): > 30000 nM | IC50 (96 h, SNU-719 cells, 96 h): > 30000 nM | IC50 (96 h, SNU-761 cells, 96 h): 1110 nM | IC50 (96 h, SNU-2535 cells, 96 h): 750 nM | IC50 (96 h, SNU-C5 cells, 96 h): > 30000 nM | IC50 (96 h, SW 156 cells, 96 h): 2390 nM | IC50 (96 h, T.Tn cells, 96 h): 840 nM | IC50 (96 h, TJ905 cells, 96 h): > 30000 nM | IC50 (96 h, YCC-1 cells, 96 h): > 30000 nM | IC50 (96 h, YCC-2 cells, 96 h): > 30000 nM | IC50 (96 h, YCC-6 cells, 96 h): 540 nM | IC50 (96 h, YCC-10, 96 h): > 30000 nM | IC50 (A875, 96 h, A875 cells, 96 h): > 30000 nM | % inhibition at top conc. (A875 cells, 96 h): 10.68% | % inhibition at top conc. (A2058, 96 h): 29.09% | % inhibition at top conc. (A2780 cells, 96 h): 69.48% | IC50 (A2780cis, 96 h, A2780cis cells, 96 h): 540 nM | % inhibition at top conc. (A-204 cells, 96 h): 37.77% | % inhibition at top conc. (A-375, 96 h): 52.11% | % inhibition at top conc. (A-431, 96 h): 66.83% | % inhibition at top conc. (AGS cells, 96 h): 28.18% | % inhibition at top conc. (AN3 CA, 96 h): 35.67% | % inhibition at top conc. (AsPC-1 cells, 96 h): 34.71% | % inhibition at top conc. (C4-2, 96 h): 45.07% | % inhibition at top conc. (C666-1 cells, 96 h): 36.20% | IC50 (CADO-ES1, CADO-ES1): 210 nM | % inhibition at top conc. (CAMA-1, 96 h): 54.72% | % inhibition at top conc. (COLO 205, 96 h): 60.57% | % inhibition at top conc. (COLO 320DM, 96 h): 72.92% | % inhibition at top conc. (COV644 cells, 96 h): 31.57% | % inhibition at top conc. (Calu-3, 96 h): 65.15% | IC50 (CoC1, 96 h, CoC1/DDP cells, 96 h): > 30000 nM | IC50 (CoC1, 96 h, CoC1 cells, 96 h): 1320 nM | % inhibition at top conc. (DMS 53 cells, 96 h): 85.18% | % inhibition at top conc. (DOHH-2 cells, 96 h): 99.99% | % inhibition at top conc. (DU 145, 96 h): 66.37% | % inhibition at top conc. (EBC-1, 96 h): 42.21% | % inhibition at top conc. (EFM-192A, 96 h): 49.39% | IC50 (EFM-192A, 96 h, EFM-192A, 96 h): 520 nM | % inhibition at top conc. (ES-2 cells, 96 h): 44.22% | % inhibition at top conc. (FaDu, 96 h): 62.82% | % inhibition at top conc. (GTL-16 cells, 96 h): 54.64% | IC50 (HBL1, HBL-1): 710 nM | % inhibition at top conc. (HCC827 cells, 96 h): 63.74% | IC50 (HCC1500, HCC1500): > 30000 nM | % inhibition at top conc. (HCC2218, 96 h): 33.43% | % inhibition at top conc. (HCC4006, 96 h): 60.70% | IC50 (HCCC9810, HCCC-9810): > 30000 nM | % inhibition at top conc. (HCCLM3 cells, 96 h): 29.79% | % inhibition at top conc. (HGC-27 cells, 96 h): 90.57% | IC50 (HLF, 96 h, HLF cells, 96 h): > 30000 nM | % inhibition at top conc. (HM-7, 96 h): 43.55% | % inhibition at top conc. (HT-1080, 96 h): 68.42% | % inhibition at top conc. (Hep G2/C3A, 96 h): 23.83% | IC50 (HepG2/C3A, 96 h, Hep G2/C3A, 96 h): > 30000 nM | IC50 (Homo sapiens, 22Rv1, 96 h, 22Rv1 cells, 96 h): 430 nM | IC50 (Homo sapiens, 769-P, 96 h, 769-P cells, 96 h): 1040 nM | IC50 (Homo sapiens, 786-0, 96 h, 786-O cells, 96 h): 1150 nM | IC50 (Homo sapiens, 8505C): > 30000 nM | IC50 (Homo sapiens, A 172, 96 h, A-172 cells, 96 h): > 30000 nM | IC50 (Homo sapiens, A204, 96 h, A-204 cells, 96 h): > 30000 nM | IC50 (Homo sapiens, A253, 96 h, A253 cells, 96 h): > 30000 nM | IC50 (Homo sapiens, A498, 96 h, A498 cells, 96 h): 860 nM | IC50 (Homo sapiens, A549, 96 h, A549 cells, 96 h): 1040 nM | IC50 (Homo sapiens, A673, 96 h, A-673 cells, 96 h): 680 nM | IC50 (Homo sapiens, A2058, 96 h): > 30000 nM | IC50 (Homo sapiens, A2780, 96 h, A2780 cells, 96 h): 400 nM | IC50 (Homo sapiens, A-375, 96 h): > 30000 nM | IC50 (Homo sapiens, A-427, 96 h, A-427 cells, 96 h): > 30000 nM | IC50 (Homo sapiens, A-431, 96 h): 1150 nM | IC50 (Homo sapiens, ACHN, 96 h, ACHN cells, 96 h): 790 nM | IC50 (Homo sapiens, AGS, 96 h, AGS cells, 96 h): > 30000 nM | IC50 (Homo sapiens, AMO1, 96 h, AMO-1 cells, 96 h): 1480 nM | IC50 (Homo sapiens, AN3-CA, 96 h, AN3 CA, 96 h): > 30000 nM | IC50 (Homo sapiens, ARH-77, ARH-77): > 30000 nM | IC50 (Homo sapiens, ASPC1, 96 h, AsPC-1 cells, 96 h): > 30000 nM | IC50 (Homo sapiens, AU565, AU565): 10100 nM | IC50 (Homo sapiens, BT-20, 96 h, BT-20 cells, 96 h): > 30000 nM | IC50 (Homo sapiens, BT-474, 96 h, BT474 cells, 96 h): > 30000 nM | IC50 (Homo sapiens, BT-483, BT-483): > 30000 nM | IC50 (Homo sapiens, BT-549, 96 h, BT-549 cells, 96 h): 450 nM | IC50 (Homo sapiens, BXPC-3, BxPC-3): 540 nM | IC50 (Homo sapiens, C6661, 96 h, C666-1 cells, 96 h): > 30000 nM | IC50 (Homo sapiens, C-33-A, 96 h, C-33 A cells, 96 h): > 30000 nM | IC50 (Homo sapiens, CA46, 96 h, CA46 cells, 96 h): 600 nM | IC50 (Homo sapiens, CAKI-2, Caki-2): > 30000 nM | IC50 (Homo sapiens, CAL-27, 96 h, CAL-27 cells, 96 h): 3950 nM | IC50 (Homo sapiens, CAL-51, CAL-51): 1680 nM | IC50 (Homo sapiens, CAL-120, CAL-120): > 30000 nM | IC50 (Homo sapiens, CAMA-1, 96 h): 690 nM | IC50 (Homo sapiens, CAPAN-1, Capan-1): > 30000 nM | IC50 (Homo sapiens, CCRF-CEM): 580 nM | IC50 (Homo sapiens, CFPAC-1, CFPAC-1): > 30000 nM | IC50 (Homo sapiens, COLO 205, 96 h): 1140 nM | IC50 (Homo sapiens, COLO 320DM, 96 h, COLO 320DM, 96 h): 490 nM | IC50 (Homo sapiens, Ca-Ski, 96 h, Ca Ski cells, 96 h): > 30000 nM | IC50 (Homo sapiens, Caco-2, 96 h, Caco-2 cells, 96 h): > 30000 nM | IC50 (Homo sapiens, Calu-1, Calu-1): 1040 nM | IC50 (Homo sapiens, Calu-3, 96 h): 1750 nM | IC50 (Homo sapiens, Calu-6, Calu-6): > 30000 nM | IC50 (Homo sapiens, Caov-3, 96 h, Caov-3 cells, 96 h): > 30000 nM | IC50 (Homo sapiens, Capan-2, Capan-2): > 30000 nM | IC50 (Homo sapiens, DLD-1, DLD-1): 420 nM | IC50 (Homo sapiens, DMS-53, 96 h, DMS 53 cells, 96 h): 1070 nM
